The results in this text go back to patent publication US11459315B2, “Modulators of methyl modifying enzymes, compositions and uses thereof” (Constellation Pharmaceuticals, Inc., priority 2017, dated 2022).

Read-outs that look alike come from different tables or passages of the source.

Assay [1] has as its system H3K27me3 mark in HeLa cells (EZH2). Kind of assay: H3K27me3 Alpha Hela Assay (AlphaLISA). It counts as cell-based. In a few lines: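 HeLa cells (1,000/well) treated with ten 3-fold compound doses for 72 h at 37 °C; lysates extracted and H3K27me3 detected by AlphaLISA with anti-K27me3 acceptor beads, biotinylated anti-H3 (3 nM) and streptavidin donor beads. EC50 from DMSO-normalized dose-response curves; duplicate plate assessed viability.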

The target in assay [2] is T1, PRC2 containing wt EZH2 (Homo sapiens (Human), UniProt Q15910). Kind of assay: EZH2 residence time assay (100-fold dilution of pre-formed enzyme-inhibitor complex). It counts as biochemical. The procedure: EZH2 residence time assay: Compound residence times were assessed by monitoring the recovery of enzyme activity following a 100-fold dilution of pre-formed enzyme-inhibitor complex (dilution reaction), and comparing it to the activity of an undiluted control with the same final concentrations of all reagents (control reaction). Enzyme activity was measured by incorporation of ^3H-SAM into a biotinylated H3 peptide. […] For the control reaction, 0.202 nM PRC2 was pre-incubated with 1 μM activating peptide, 1.01 μM SAM, 1.01 μM ^3H-SAM, and compound at 6.06 times its Ki for 2 h in 138.6 μL of buffer, then the reaction was initiated by the addition of 1.4 μL 500 μM substrate peptide in water. Reactions were quenched at various time points spanning up to 10 hours, by transferring 8 μL aliquots from the reaction vessel to a plate containing 8 μL per well of STOP solution (50 mM Tris pH 8.5, 200 mM EDTA, 2 mM SAH). After the last time point, 12 μL of the quenched solutions were transferred to a streptavidin coated FlashPlate (PerkinElmer) containing 40 μL per well of STOP solution, incubated 1-8 h, washed, and read in a TopCount plate reader (PerkinElmer). A custom script was used to fit control reaction progress data to a straight line and dilution reaction progress data:
Where y is the product formed, t is the reaction time, vi is the initial velocity, vs is the steady state velocity, and kobs is the rate constant for the transition from the initial velocity phase of the curve to the steady state velocity phase of the curve. In fitting the dilution reaction progress data, vs was constrained to the slope of the line fitted to the control reaction progress data. The fitted value of kobs was then transformed into residence time:
Where τ is residence time, Ki is the inhibition constant, [EI] is the calculated equilibrium concentration of enzyme-inhibitor complex, [E] is the calculated equilibrium concentration of free enzyme, and [I] is the calculated equilibrium concentration of free inhibitor.

Assay [3] addresses T1, PRC2 containing wt EZH2. Nature of the assay: EZH2 biochemical assay (IC50), 3H-SAM incorporation into biotinylated H3 peptide. The settings on record: 30 pM PRC2 containing wt EZH2, 3-5 h pre-incubation. The method, boiled down: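 Activity was measured as ³H-methyl transfer to a biotinylated H3K27me1 peptide over 18-22 h at room temperature, with capture on streptavidin flash plates. The 30 pM wt-EZH2 PRC2 complex was first pre-incubated 3-5 h with compound, 450 nM SAM/450 nM ³H-SAM and 2 µM H3K27me3 activator (pH 8.5, 0.8% DMSO). Four-parameter fits gave IC50.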

The mark [4] stands for this setting: Homo sapiens, HeLa, HeLa cell assay, Table 3 classes, read-out: EC50 Cellular Activity.
Where [5] appears, read: Homo sapiens, HeLa, 72 h, HeLa cells, 72 hrs, read-out: EZH2 Cell H3K27me3 Alpha HeLa (EC50 K27me3).

T1 sequence (Q15910 whole entry): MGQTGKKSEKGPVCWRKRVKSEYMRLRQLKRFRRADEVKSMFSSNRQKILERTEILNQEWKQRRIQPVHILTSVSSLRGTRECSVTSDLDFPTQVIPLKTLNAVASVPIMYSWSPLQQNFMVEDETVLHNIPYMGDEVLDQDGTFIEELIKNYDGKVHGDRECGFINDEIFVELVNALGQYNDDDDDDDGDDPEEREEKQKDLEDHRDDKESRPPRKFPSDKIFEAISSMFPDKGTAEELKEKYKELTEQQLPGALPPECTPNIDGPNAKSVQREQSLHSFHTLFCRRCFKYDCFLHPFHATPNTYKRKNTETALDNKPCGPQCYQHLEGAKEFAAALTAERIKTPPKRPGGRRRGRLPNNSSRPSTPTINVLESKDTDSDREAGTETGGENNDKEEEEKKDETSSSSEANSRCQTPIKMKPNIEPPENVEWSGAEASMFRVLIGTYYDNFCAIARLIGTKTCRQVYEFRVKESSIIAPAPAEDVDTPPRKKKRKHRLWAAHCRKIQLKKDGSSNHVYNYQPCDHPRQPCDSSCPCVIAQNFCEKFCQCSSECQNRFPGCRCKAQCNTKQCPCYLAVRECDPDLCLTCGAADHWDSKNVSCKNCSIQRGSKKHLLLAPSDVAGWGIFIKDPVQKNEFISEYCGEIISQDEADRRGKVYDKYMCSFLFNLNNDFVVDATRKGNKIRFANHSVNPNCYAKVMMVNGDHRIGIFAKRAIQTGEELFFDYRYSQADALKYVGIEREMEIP
T1 sequence (O75530 whole entry partner): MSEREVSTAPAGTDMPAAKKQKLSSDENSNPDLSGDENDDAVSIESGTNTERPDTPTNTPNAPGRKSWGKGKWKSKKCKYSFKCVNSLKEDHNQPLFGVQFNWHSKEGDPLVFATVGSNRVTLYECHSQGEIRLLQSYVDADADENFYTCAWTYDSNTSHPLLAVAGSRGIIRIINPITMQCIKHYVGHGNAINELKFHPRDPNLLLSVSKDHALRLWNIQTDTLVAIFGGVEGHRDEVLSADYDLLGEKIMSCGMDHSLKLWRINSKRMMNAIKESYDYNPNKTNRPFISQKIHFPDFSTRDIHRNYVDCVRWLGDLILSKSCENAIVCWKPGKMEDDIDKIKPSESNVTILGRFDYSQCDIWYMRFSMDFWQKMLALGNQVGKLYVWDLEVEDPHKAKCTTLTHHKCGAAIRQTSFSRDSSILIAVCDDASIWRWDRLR
T1 sequence (Q15022 whole entry partner): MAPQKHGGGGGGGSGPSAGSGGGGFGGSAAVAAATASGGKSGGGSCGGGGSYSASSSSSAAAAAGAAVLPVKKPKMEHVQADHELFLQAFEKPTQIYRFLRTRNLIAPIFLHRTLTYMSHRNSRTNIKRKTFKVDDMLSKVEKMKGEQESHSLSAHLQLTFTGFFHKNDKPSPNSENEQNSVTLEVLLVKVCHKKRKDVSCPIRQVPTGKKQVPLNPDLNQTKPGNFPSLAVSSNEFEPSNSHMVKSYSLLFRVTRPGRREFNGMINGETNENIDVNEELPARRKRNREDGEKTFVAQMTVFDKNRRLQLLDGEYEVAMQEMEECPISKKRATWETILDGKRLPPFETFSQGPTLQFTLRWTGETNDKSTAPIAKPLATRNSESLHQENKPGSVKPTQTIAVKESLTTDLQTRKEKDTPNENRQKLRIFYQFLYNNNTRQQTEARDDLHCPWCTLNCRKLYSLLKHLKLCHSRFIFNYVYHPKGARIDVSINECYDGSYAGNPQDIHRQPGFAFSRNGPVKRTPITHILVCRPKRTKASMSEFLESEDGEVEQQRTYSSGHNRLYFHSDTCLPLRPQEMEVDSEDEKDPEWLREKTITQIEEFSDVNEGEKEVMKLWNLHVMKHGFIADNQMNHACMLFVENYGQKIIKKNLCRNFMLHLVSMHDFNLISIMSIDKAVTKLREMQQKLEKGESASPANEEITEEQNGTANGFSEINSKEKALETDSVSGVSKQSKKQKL
T1 sequence (Q09028 whole entry partner): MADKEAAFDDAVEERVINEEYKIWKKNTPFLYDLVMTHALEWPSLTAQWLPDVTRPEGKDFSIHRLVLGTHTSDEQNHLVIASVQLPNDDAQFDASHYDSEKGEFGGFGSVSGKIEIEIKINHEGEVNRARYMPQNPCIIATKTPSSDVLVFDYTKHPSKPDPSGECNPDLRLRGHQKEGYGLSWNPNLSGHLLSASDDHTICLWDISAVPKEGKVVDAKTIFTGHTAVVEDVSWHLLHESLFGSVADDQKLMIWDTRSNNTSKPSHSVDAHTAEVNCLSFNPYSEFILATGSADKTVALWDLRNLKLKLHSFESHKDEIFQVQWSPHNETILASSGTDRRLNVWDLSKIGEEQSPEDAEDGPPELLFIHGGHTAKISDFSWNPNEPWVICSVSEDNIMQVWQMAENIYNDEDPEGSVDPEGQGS
T1 sequence (Q6ZN18 whole entry partner): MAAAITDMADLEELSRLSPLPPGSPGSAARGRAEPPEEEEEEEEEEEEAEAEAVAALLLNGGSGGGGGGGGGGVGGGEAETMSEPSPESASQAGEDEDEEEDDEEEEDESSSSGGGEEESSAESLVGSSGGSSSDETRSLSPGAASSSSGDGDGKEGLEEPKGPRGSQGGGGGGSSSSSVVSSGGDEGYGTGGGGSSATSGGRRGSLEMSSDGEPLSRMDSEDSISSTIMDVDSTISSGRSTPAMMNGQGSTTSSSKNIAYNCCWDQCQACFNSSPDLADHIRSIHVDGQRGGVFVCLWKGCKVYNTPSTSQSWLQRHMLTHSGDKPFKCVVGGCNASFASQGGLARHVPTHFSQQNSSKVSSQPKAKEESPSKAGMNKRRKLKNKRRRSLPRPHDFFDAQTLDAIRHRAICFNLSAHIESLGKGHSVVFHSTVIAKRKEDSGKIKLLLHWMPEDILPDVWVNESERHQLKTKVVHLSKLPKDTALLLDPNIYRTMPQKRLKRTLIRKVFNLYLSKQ

As to `Cc1cc(C)c(CNC(=O)c2c(C)n([C@H](C)C34CC(NC5COC5)(C3)C4)c3ccccc23)c(=O)[nH]1`, the half-maximal effective concentration (EC50) in assay [1] (setting [4]) is 25 to 125 nM. Further, the residence time on PRC2 containing wt EZH2 [2] (read-out: Residence Time) is < 30 min.

For the compound `Cc1cc(C)c(CNC(=O)c2c(C)n([C@H](C)C34CC(N(C)CC(F)(F)F)(C3)C4)c3ccccc23)c(=O)[nH]1`, the concentration for a half-maximal effect (EC50) in assay [1] (setting [4]) was > 125 nM. Moreover, the residence time on PRC2 containing wt EZH2 [2] (read-out: Residence Time) is < 30 min.

Consider `COc1cc(C)[nH]c(=O)c1CNC(=O)c1c(C)n([C@H](C)C23CC(N(C)CC(F)(F)F)(C2)C3)c2ccccc12`, for which the EC50 in assay [1] (setting [4]) was in the range of 25 to 125 nM. Also, the residence time on PRC2 containing wt EZH2 [2] (read-out: Residence Time) lay in the range of 30 to 300 min.

Regarding `Cc1cc(C)c(CNC(=O)c2c(C)n([C@H](C)C3CCN(CC(C)(C)O)CC3)c3ccccc23)c(=O)[nH]1`, the EC50 in assay [1] (setting [4]) was > 125 nM. The residence time on PRC2 containing wt EZH2 [2] was < 30 min.

Turning to `COc1cc(C)[nH]c(=O)c1CNC(=O)c1c(C)n([C@H](C)C2CCN(CC(C)(C)O)CC2)c2ccccc12`, the concentration giving a half-maximal response (EC50) in assay [1] (setting [4]) is > 125 nM. Further, on PRC2 containing wt EZH2 [2], the residence time was < 30 min.

In the case of `Cc1cc(C)c(CNC(=O)c2c(C)n([C@H](C)C3CCN(CC(F)(F)F)CC3)c3ccccc23)c(=O)[nH]1`, in assay [1] (setting [4]), the concentration for a half-maximal effect (EC50) is 25 to 125 nM. The residence time at PRC2 containing wt EZH2 [2] is < 30 min.

As for `COc1cc(C)[nH]c(=O)c1CNC(=O)c1c(C)n([C@H](C)C2CCN(CC(F)(F)F)CC2)c2ccccc12`, the EC50 in assay [1] (setting [4]) was in the range of 5 to 25 nM. Further, the residence time at PRC2 containing wt EZH2 [2] (read-out: Residence Time) fell in the range of 30 to 300 min.

As for `Cc1cc(Cl)c(CNC(=O)c2c(C)n([C@H](C)C3CCOCC3)c3ccccc23)c(=O)[nH]1`, in assay [1] (setting [4]), the EC50 fell in the range of 25 to 125 nM. Besides, the residence time at PRC2 containing wt EZH2 [2] was < 30 min.

Take `CSc1cc(C)[nH]c(=O)c1CNC(=O)c1c(C)n([C@H](C)C2CCC(N3CC(OC4CC4)C3)CC2)c2ncccc12` (stereo partly shown): the EC50 in assay [1] (setting [4]) is < 5 nM. Also, the residence time at PRC2 containing wt EZH2 [2] (read-out: Residence Time) lay in the range of 300 to 2100 min.

Consider `CSc1cc(C)[nH]c(=O)c1CNC(=O)c1c(C)n([C@H](C)C2CCC(NC3(C(F)(F)F)COC3)CC2)c2ccccc12` (stereo partly shown), for which the 50% effective concentration (EC50) in assay [1] (setting [4]) was < 5 nM. Further, the residence time at PRC2 containing wt EZH2 [2] fell in the range of 300 to 2100 min.

Turning to `COC1CN(C2CCC([C@@H](C)n3c(C)c(C(=O)NCc4c(Cl)cc(C)[nH]c4=O)c4ccccc43)CC2)C1` (single isomer, unassigned), the EC50 in assay [1] (setting [4]) lay in the range of 5 to 25 nM. The residence time at PRC2 containing wt EZH2 [2] was 30 to 300 min.

On to `COC1CN(C2CCC([C@@H](C)n3c(C)c(C(=O)NCc4c(C)cc(C)[nH]c4=O)c4ccccc43)CC2)C1` (single isomer, unassigned), for which the 50% effective concentration (EC50) in assay [1] (setting [4]) lay within 5 to 25 nM. Also, on PRC2 containing wt EZH2 [2], the residence time was 30 to 300 min.

On to `CSc1cc(C)[nH]c(=O)c1CNC(=O)c1c(C)n([C@H](C)C2CCC(N3CC(OC(F)F)C3)CC2)c2ncccc12` (single isomer, unassigned), for which, in assay [1] (setting [4]), the EC50 was < 5 nM. Besides, the residence time at PRC2 containing wt EZH2 [2] (read-out: Residence Time) is 300 to 2100 min.

For the compound `Cc1cc(Cl)c(CNC(=O)c2c(C)n([C@H](C)C3CCC(NC4(C)COC4)CC3)c3ccccc23)c(=O)[nH]1` (single isomer, unassigned) [drawing 201], the EC50 in assay [1] (HeLa cell assay, Table 3 classes, read-out: EC50 Cellular Activity) is 25 to 125 nM. In addition, the “residence time” value at PRC2 containing wt EZH2 [2] is listed as “D (a t value of less or equal than 0.5 hours)”.

`COC1CC(N2CCC([C@@H](C)n3c(C)c(C(=O)NCc4c(SC)cc(C)[nH]c4=O)c4cccnc43)CC2)C1` (stereo partly drawn) [Example 141, (R)-1-(1-(1-(3-methoxycyclobutyl)piperidin-4-yl)ethyl)-2-methyl-N-((6-methyl-4-(methylthio)-2-oxo-1,2-dihydropyridin-3-yl)methyl)-1H-pyrrolo[2,3-b]pyridine-3-carboxamide]: the EC50 in assay [1] (setting [5]) fell in the range of 10 to 100 nM. Further, the IC50 on PRC2 containing wt EZH2 [3] (EZH2 (IC50)) was < 0.5 nM.

On to `CSc1cc(C)[nH]c(=O)c1CNC(=O)c1c(C)n([C@H](C)C2CCN(C(=O)CN(C)C)CC2)c2ccccc12` [Example 142, (R)-1-(1-(1-(dimethylglycyl)piperidin-4-yl)ethyl)-2-methyl-N-((6-methyl-4-(methylthio)-2-oxo-1,2-dihydropyridin-3-yl)methyl)-1H-indole-3-carboxamide], for which the EC50 in assay [1] (setting [5]) is > 100 nM. Besides, the concentration for half-maximal inhibition (IC50) at PRC2 containing wt EZH2 [3] (read-out: EZH2 (IC50)) was < 0.5 nM.

`CCS(=O)(=O)N1CCC([C@@H](C)n2c(C)c(C(=O)NCc3c(SC)cc(C)[nH]c3=O)c3ccccc32)CC1` [Example 146, (R)-1-(1-(1-(ethylsulfonyl)piperidin-4-yl)ethyl)-2-methyl-N-((6-methyl-4-(methylthio)-2-oxo-1,2-dihydropyridin-3-yl)methyl)-1H-indole-3-carboxamide]: the EC50 in assay [1] (setting [5]) was < 10 nM. In addition, at PRC2 containing wt EZH2 [3] (read-out: EZH2 (IC50)), the half-maximal inhibitory concentration (IC50) is < 0.5 nM.

With `COC1CC(N2CC[C@H]([C@@H](C)n3c(C)c(C(=O)NCc4c(SC)cc(C)[nH]c4=O)c4ccccc43)[C@@H](F)C2)C1` (stereo partly drawn) [Example 152, 1-((R)-1-((3R,4R)-3-fluoro-1-(3-methoxycyclobutyl)piperidin-4-yl)ethyl)-2-methyl-N-((6-methyl-4-(methylthio)-2-oxo-1,2-dihydropyridin-3-yl)methyl)-1H-indole-3-carboxamide], the EC50 in assay [1] (setting [5]) is < 10 nM. Further, on PRC2 containing wt EZH2 [3] (read-out: EZH2 (IC50)), the IC50 was < 0.5 nM.

For `COC1CC(N2CC[C@H]([C@@H](C)n3c(C)c(C(=O)NCc4c(SC)cc(C)[nH]c4=O)c4ccccc43)[C@H](F)C2)C1` (stereo partly drawn) [Example 153, 1-((R)-1-((3S,4R)-3-fluoro-1-(3-methoxycyclobutyl)piperidin-4-yl)ethyl)-2-methyl-N-((6-methyl-4-(methylthio)-2-oxo-1,2-dihydropyridin-3-yl)methyl)-1H-indole-3-carboxamide], the EC50 in assay [1] (setting [5]) is < 10 nM. In addition, at PRC2 containing wt EZH2 [3] (read-out: EZH2 (IC50)), the concentration for half-maximal inhibition (IC50) was < 0.5 nM.

On to `CSc1cc(C)[nH]c(=O)c1CNC(=O)c1c(C)n([C@H](C)C2CCC(N3CC(F)(C4CC4)C3)CC2)c2ncccc12` (stereo partly drawn) [Example 157, 1-((R)-1-(4-(3-cyclopropyl-3-fluoroazetidin-1-yl)cyclohexyl)ethyl)-2-methyl-N-((6-methyl-4-(methylthio)-2-oxo-1,2-dihydropyridin-3-yl)methyl)-1H-pyrrolo[2,3-b]pyridine-3-carboxamide], for which the half-maximal effective concentration (EC50) in assay [1] (setting [5]) was in the range of 10 to 100 nM. The IC50 at PRC2 containing wt EZH2 [3] (read-out: EZH2 (IC50)) is < 0.5 nM.

For the compound `CSc1cc(C)[nH]c(=O)c1CNC(=O)c1c(C)n([C@H](C)C2CCC(N3CC(O)(C(C)C)C3)CC2)c2ncccc12` (stereo partly drawn) [Example 158, 1-((R)-1-(4-(3-hydroxy-3-isopropylazetidin-1-yl)cyclohexyl)ethyl)-2-methyl-N-((6-methyl-4-(methylthio)-2-oxo-1,2-dihydropyridin-3-yl)methyl)-1H-pyrrolo[2,3-b]pyridine-3-carboxamide], the concentration for a half-maximal effect (EC50) in assay [1] (setting [5]) was > 100 nM. The 50% inhibitory concentration (IC50) on PRC2 containing wt EZH2 [3] (read-out: EZH2 (IC50)) is < 0.5 nM.

On to `CSc1cc(C)[nH]c(=O)c1CNC(=O)c1c(C)n([C@H](C)C2CCC(N3CC(n4ccnn4)C3)CC2)c2ccccc12` (stereo partly drawn) [Example 160, 1-((R)-1-(4-(3-(1H-1,2,3-triazol-1-yl)azetidin-1-yl)cyclohexyl)ethyl)-2-methyl-N-((6-methyl-4-(methylthio)-2-oxo-1,2-dihydropyridin-3-yl)methyl)-1H-indole-3-carboxamide], for which the EC50 in assay [1] (setting [5]) is < 10 nM. For the same compound, the half-inhibitory concentration (IC50) at PRC2 containing wt EZH2 [3] (read-out: EZH2 (IC50)) was < 0.5 nM.

With `CSc1cc(C)[nH]c(=O)c1CNC(=O)c1c(C)n([C@H](C)C2CCC(NC3(C(F)(F)F)CC3)CC2)c2ncccc12` (stereo partly drawn) [Example 161, 2-methyl-N-((6-methyl-4-(methylthio)-2-oxo-1,2-dihydropyridin-3-yl)methyl)-1-((R)-1-(4-((1-(trifluoromethyl)cyclopropyl)amino)cyclohexyl)ethyl)-1H-pyrrolo[2,3-b]pyridine-3-carboxamide], in assay [1] (setting [5]), the EC50 was 10 to 100 nM. Besides, at PRC2 containing wt EZH2 [3] (read-out: EZH2 (IC50)), the IC50 was < 0.5 nM.
